Results taken from ChEMBL document CHEMBL4665863 (Bioorg Med Chem, 2020).
Values after ≈ are worked out from the molar mass of the structure shown.

Columns and labels:
Type in all cases: functional
Escherichia coli = assay: Antibacterial activity against Escherichia coli ATCC25922 incubated for 24 hrs by CLSI-based broth microdilution method; settings: ATCC 25922
Bacillus pumilus = assay: Antibacterial activity against Bacillus pumilus CMCC63202 incubated for 24 hrs by CLSI-based broth microdilution method
Staphylococcus aureus [1] = assay: Antibacterial activity against Staphylococcus aureus ATCC25923 incubated for 24 hrs by CLSI-based broth microdilution method
Staphylococcus aureus [2] = assay: Antibacterial activity against methicillin-resistant Staphylococcus aureus ATCC43300 incubated for 24 hrs by CLSI-based broth microdilution method
Bacillus subtilis = assay: Antibacterial activity against Bacillus subtilis ATCC9372 incubated for 24 hrs by CLSI-based broth microdilution method
Staphylococcus aureus [3] = assay: Antibacterial activity against penicillin-resistant Staphylococcus aureus incubated for 24 hrs by CLSI-based broth microdilution method
Pseudomonas aeruginosa = assay: Antibacterial activity against Pseudomonas aeruginosa ATCC27853 incubated for 24 hrs by CLSI-based broth microdilution method

Row | SMILES | MIC (Escherichia coli) [µg/mL] | MIC (Bacillus pumilus) [µg/mL] | MIC (Staphylococcus aureus [1]) [µg/mL] | MIC (Staphylococcus aureus [2]) [µg/mL] | MIC (Bacillus subtilis) [µg/mL] | MIC (Staphylococcus aureus [3]) [µg/mL] | MIC (Pseudomonas aeruginosa) [µg/mL]
1 | NC(=O)c1c(F)ccc(OCC2CC(c3ccc(Cl)c(Cl)c3)=NO2)c1F (configuration not stated) | > 64 | > 64 | > 64 | > 64 | 2 (≈ 4.99 µM) | > 64 | > 64
2 | NC(=O)c1c(F)ccc(OCC2CC(c3ccc(F)cc3)=NO2)c1F (configuration not stated) | > 64 | 32 (≈ 91.4 µM) | 64 (≈ 183 µM) | 64 (≈ 183 µM) | 8 (≈ 22.8 µM) | 64 (≈ 183 µM) | > 64
3 | COc1cccc(C2CC(COc3ccc(F)c(C(N)=O)c3F)=NO2)c1 (configuration not stated) | > 64 | > 64 | > 64 | > 64 | > 64 | > 64 | > 64
4 | NC(=O)c1c(F)ccc(OCC2CC(c3ccc(Cl)cc3)=NO2)c1F (configuration not stated) | > 64 | 8 (≈ 21.8 µM) | 32 (≈ 87.3 µM) | 32 (≈ 87.3 µM) | 8 (≈ 21.8 µM) | 32 (≈ 87.3 µM) | > 64
5 | CCOc1ccc(C2=NOC(COc3ccc(F)c(C(N)=O)c3F)C2)cc1 (configuration not stated) | > 64 | 16 (≈ 42.5 µM) | 64 (≈ 170 µM) | 64 (≈ 170 µM) | 4 (≈ 10.6 µM) | > 64 | > 64
6 | CCCCCc1ccc(C2=NOC(COc3ccc(F)c(C(N)=O)c3F)C2)cc1 (configuration not stated) | > 64 | ≤ 0.125 | > 64 | > 64 | 0.5 (≈ 1.24 µM) | > 64 | > 64
7 | CCCOc1ccc(C2=NOC(COc3ccc(F)c(C(N)=O)c3F)C2)cc1 (configuration not stated) | > 64 | 4 (≈ 10.2 µM) | > 64 | > 64 | 4 (≈ 10.2 µM) | > 64 | > 64
8 | Cc1ccc(C2CC(COc3ccc(F)c(C(N)=O)c3F)=NO2)cc1 (configuration not stated) | > 64 | 64 (≈ 185 µM) | > 64 | > 64 | 16 (≈ 46.2 µM) | > 64 | > 64
9 | COc1ccc(C2=NOC(COc3ccc(F)c(C(N)=O)c3F)C2)cc1 (configuration not stated) | > 64 | 32 (≈ 88.3 µM) | > 64 | > 64 | 8 (≈ 22.1 µM) | > 64 | > 64
10 | CCCOc1ccc(C2CC(COc3ccc(F)c(C(N)=O)c3F)=NO2)cc1 (configuration not stated) | > 64 | 32 (≈ 82 µM) | > 64 | 64 (≈ 164 µM) | 8 (≈ 20.5 µM) | > 64 | > 64
11 | NC(=O)c1c(F)ccc(OCC2CC(c3ccco3)=NO2)c1F (configuration not stated) | > 64 | > 64 | > 64 | > 64 | 64 (≈ 199 µM) | > 64 | > 64
12 | Cc1ccc(C2=NOC(COc3ccc(F)c(C(N)=O)c3F)C2)cc1 (configuration not stated) | > 64 | 16 (≈ 46.2 µM) | 32 (≈ 92.4 µM) | 32 (≈ 92.4 µM) | 16 (≈ 46.2 µM) | > 64 | > 64
13 | CC(C)(C)c1ccc(C2CC(COc3ccc(F)c(C(N)=O)c3F)=NO2)cc1 (configuration not stated) | > 64 | 4 (≈ 10.3 µM) | 64 (≈ 165 µM) | 32 (≈ 82.4 µM) | 2 (≈ 5.15 µM) | 32 (≈ 82.4 µM) | > 64
14 | CCc1ccc(C2=NOC(COc3ccc(F)c(C(N)=O)c3F)C2)cc1 (configuration not stated) | > 64 | 2 (≈ 5.55 µM) | 8 (≈ 22.2 µM) | 8 (≈ 22.2 µM) | 0.5 (≈ 1.39 µM) | 16 (≈ 44.4 µM) | > 64
15 | CCOc1cccc(C2=NOC(COc3ccc(F)c(C(N)=O)c3F)C2)c1 (configuration not stated) | > 64 | 8 (≈ 21.3 µM) | 32 (≈ 85 µM) | 32 (≈ 85 µM) | 4 (≈ 10.6 µM) | 32 (≈ 85 µM) | > 64
16 | NC(=O)c1c(F)ccc(OCC2CC(c3ccccc3Cl)=NO2)c1F (configuration not stated) | > 64 | 64 (≈ 175 µM) | > 64 | > 64 | 16 (≈ 43.6 µM) | > 64 | > 64
17 | COc1cccc(C2=NOC(COc3ccc(F)c(C(N)=O)c3F)C2)c1 (configuration not stated) | > 64 | 32 (≈ 88.3 µM) | > 64 | > 64 | 8 (≈ 22.1 µM) | > 64 | > 64
18 | NC(=O)c1c(F)ccc(OCC2=NOC(c3cccc(Cl)c3)C2)c1F (configuration not stated) | > 64 | > 64 | > 64 | > 64 | 64 (≈ 175 µM) | > 64 | > 64
19 | CC(C)c1ccc(C2=NOC(COc3ccc(F)c(C(N)=O)c3F)C2)cc1 (configuration not stated) | > 64 | ≤ 0.125 | 4 (≈ 10.7 µM) | 4 (≈ 10.7 µM) | ≤ 0.125 | 16 (≈ 42.7 µM) | > 64
20 | NC(=O)c1c(F)ccc(OCC2CC(c3ccc4c(c3)OCO4)=NO2)c1F (configuration not stated) | > 64 | 16 (≈ 42.5 µM) | 64 (≈ 170 µM) | 64 (≈ 170 µM) | 16 (≈ 42.5 µM) | 64 (≈ 170 µM) | > 64
21 | NC(=O)c1c(F)ccc(OCC2CC(c3ccc(Cl)cc3Cl)=NO2)c1F (configuration not stated) | > 64 | 2 (≈ 4.99 µM) | 16 (≈ 39.9 µM) | 32 (≈ 79.8 µM) | 4 (≈ 9.97 µM) | 32 (≈ 79.8 µM) | > 64

Row | SMILES | MIC (Escherichia coli) [µg/mL] | MIC (Bacillus pumilus) [µg/mL] | MIC (Staphylococcus aureus [1]) [µg/mL] | MIC (Staphylococcus aureus [2]) [µg/mL] | MIC (Bacillus subtilis) [µg/mL] | MIC (Staphylococcus aureus [3]) [µg/mL] | MIC (Pseudomonas aeruginosa) [µg/mL]
22 | NC(=O)c1c(F)ccc(OCC2=NOC(c3ccc(Br)cc3)C2)c1F (configuration not stated) | > 64 | 32 (≈ 77.8 µM) | > 64 | 32 (≈ 77.8 µM) | 8 (≈ 19.5 µM) | > 64 | > 64
23 | NC(=O)c1c(F)ccc(OCC2=NOC(c3ccc(Cl)cc3)C2)c1F (configuration not stated) | > 64 | 16 (≈ 43.6 µM) | 64 (≈ 175 µM) | 32 (≈ 87.3 µM) | 4 (≈ 10.9 µM) | 64 (≈ 175 µM) | > 64
24 | NC(=O)c1c(F)ccc(OCC2=NOC(c3ccccc3Cl)C2)c1F (configuration not stated) | > 64 | 32 (≈ 87.3 µM) | > 64 | > 64 | 16 (≈ 43.6 µM) | > 64 | > 64
25 | NC(=O)c1c(F)ccc(OCC2CC(c3ccc(C4CCCCC4)cc3)=NO2)c1F (configuration not stated) | > 64 | > 64 | > 64 | > 64 | > 64 | > 64 | > 64
26 | CC(C)c1ccc(C2CC(COc3ccc(F)c(C(N)=O)c3F)=NO2)cc1 (configuration not stated) | > 64 | 8 (≈ 21.4 µM) | 64 (≈ 171 µM) | 64 (≈ 171 µM) | 4 (≈ 10.7 µM) | > 64 | > 64
27 | Cc1cccc(C2=NOC(COc3ccc(F)c(C(N)=O)c3F)C2)c1 (configuration not stated) | > 64 | 8 (≈ 23.1 µM) | 32 (≈ 92.4 µM) | 16 (≈ 46.2 µM) | 16 (≈ 46.2 µM) | 64 (≈ 185 µM) | > 64
28 | NC(=O)c1c(F)ccc(OCC2CC(c3ccccc3)=NO2)c1F (configuration not stated) | > 64 | 64 (≈ 193 µM) | > 64 | > 64 | 16 (≈ 48.1 µM) | > 64 | > 64
29 | CCCCc1ccc(C2CC(COc3ccc(F)c(C(N)=O)c3F)=NO2)cc1 (configuration not stated) | > 64 | 0.5 (≈ 1.29 µM) | 8 (≈ 20.6 µM) | 4 (≈ 10.3 µM) | ≤ 0.125 | 4 (≈ 10.3 µM) | > 64
30 | NC(=O)c1c(F)ccc(OCC2=NOC(c3ccc(F)cc3)C2)c1F (configuration not stated) | > 64 | 64 (≈ 183 µM) | > 64 | > 64 | 16 (≈ 45.7 µM) | > 64 | > 64
31 | N#Cc1ccc(C2=NOC(COc3ccc(F)c(C(N)=O)c3F)C2)cc1 (configuration not stated) | > 64 | > 64 | > 64 | > 64 | 32 (≈ 89.6 µM) | > 64 | > 64
32 | CCOc1cccc(C2CC(COc3ccc(F)c(C(N)=O)c3F)=NO2)c1 (configuration not stated) | > 64 | > 64 | > 64 | > 64 | 64 (≈ 170 µM) | > 64 | > 64
33 | CN(C)c1ccc(C2=NOC(COc3ccc(F)c(C(N)=O)c3F)C2)cc1 (configuration not stated) | > 64 | 64 (≈ 170 µM) | > 64 | > 64 | 16 (≈ 42.6 µM) | > 64 | > 64
34 | CCOc1ccccc1C1CC(COc2ccc(F)c(C(N)=O)c2F)=NO1 (configuration not stated) | > 64 | > 64 | > 64 | > 64 | > 64 | > 64 | > 64
35 | NC(=O)c1c(F)ccc(OCC2CC(c3cccc(Cl)c3)=NO2)c1F (configuration not stated) | > 64 | 8 (≈ 21.8 µM) | 16 (≈ 43.6 µM) | 32 (≈ 87.3 µM) | 2 (≈ 5.45 µM) | 32 (≈ 87.3 µM) | > 64
36 | NC(=O)c1c(F)ccc(OCC2=NOC(c3ccc(Cl)c(Cl)c3)C2)c1F (configuration not stated) | > 64 | > 64 | > 64 | > 64 | 16 (≈ 39.9 µM) | > 64 | > 64
37 | CCOc1ccc(C2CC(COc3ccc(F)c(C(N)=O)c3F)=NO2)cc1 (configuration not stated) | > 64 | 64 (≈ 170 µM) | > 64 | 64 (≈ 170 µM) | 16 (≈ 42.5 µM) | > 64 | > 64
38 | Cc1cccc(C2CC(COc3ccc(F)c(C(N)=O)c3F)=NO2)c1 (configuration not stated) | > 64 | > 64 | > 64 | > 64 | 64 (≈ 185 µM) | > 64 | > 64
39 | NC(=O)c1c(F)ccc(OCC2CC(c3ccc(Br)cc3)=NO2)c1F (configuration not stated) | > 64 | 4 (≈ 9.73 µM) | 32 (≈ 77.8 µM) | 32 (≈ 77.8 µM) | 2 (≈ 4.86 µM) | 32 (≈ 77.8 µM) | > 64
40 | CCc1ccc(C2CC(COc3ccc(F)c(C(N)=O)c3F)=NO2)cc1 (configuration not stated) | > 64 | 16 (≈ 44.4 µM) | 64 (≈ 178 µM) | 64 (≈ 178 µM) | 4 (≈ 11.1 µM) | > 64 | > 64
41 | CCCOc1cccc(C2=NOC(COc3ccc(F)c(C(N)=O)c3F)C2)c1 (configuration not stated) | > 64 | 2 (≈ 5.12 µM) | 16 (≈ 41 µM) | 16 (≈ 41 µM) | 4 (≈ 10.2 µM) | 32 (≈ 82 µM) | > 64
